Assay results from US6867179B1, “Methods of inducing hair growth and coloration” (Trustees of Boston University, priority 1994, dated 2005).

Assays:
p75 = assay: Regulation of p75 mRNA in melanocytes by agents that increase cAMP; assay type: cell-based, human; settings: forskolin 50 μM or IBMX 100 μM, within 24 hours
Method: MC were stimulated with growth factor-containing medium supplemented with forskolin (50 μM) or IBMX (100 μM) that increase cAMP levels. […] To determine if ultraviolet (UV) irradiation that induces cutaneous injury upregulates p75, MC were sham- or UV-irradiated with solar simulated light (30 mJ/cm^2, metered at 285+5 nm). […] Furthermore, 48 hours after irradiation, cAMP levels were >70% decreased in UV- vs sham-irradiated cells.

p75^NTR = target: T1, p75^NTR (Homo sapiens, UniProt P08138); settings: lysine 34 replaced by alanine; cited from earlier work
T1 sequence (P08138 29-427): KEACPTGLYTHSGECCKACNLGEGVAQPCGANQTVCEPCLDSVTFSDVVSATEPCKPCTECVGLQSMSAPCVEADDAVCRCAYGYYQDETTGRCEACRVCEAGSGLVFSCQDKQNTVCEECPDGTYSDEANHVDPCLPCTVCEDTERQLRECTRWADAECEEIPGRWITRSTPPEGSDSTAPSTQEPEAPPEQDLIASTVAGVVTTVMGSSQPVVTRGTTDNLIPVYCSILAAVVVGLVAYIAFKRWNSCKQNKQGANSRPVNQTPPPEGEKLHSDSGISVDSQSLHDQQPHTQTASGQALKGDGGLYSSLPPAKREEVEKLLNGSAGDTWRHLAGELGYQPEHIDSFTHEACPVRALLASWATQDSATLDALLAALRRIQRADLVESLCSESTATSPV

Compound | p75 mRNA upregulation (p75) | Lowering of affinity for p75NTR relative to NGF (p75^NTR)
CC(C)Cn1c(=O)n(C)c(=O)c2[nH]cnc21 [IBMX] | substantially inhibited this upregulation | 
mutant NGF: NGF in which lysine (K) at position 34 is replaced by alanine (A) |  | 50%
